How the values were obtained:
Assay type in all cases: physicochemical
[1] = Measurement of solubility in water (visual observation); settings: 37° C., shaken 1 hr
Description: As a measurement method, visual observation was used, which permits convenient evaluation of rough solubility with a small amount of sample. The temperature during measurement was 37° C. About 3 mg of the title compound of Example 3 was taken in a sample bottle with a screw cap, a test solution (0.15 mL) was added and the cap was screwed tightly thereon. The sample was ultrasonicated for 1 min to give a dispersion, which was placed in a shaking-type thermostat water bath stabilized at 37° C. and shaken for 1 hr. Then, dissolution was confirmed by visual observation.

[2] = Measurement of solubility at pH 9-13 (HPLC)
Description: Using 0.2 mol/L NaOH/0.1 mol/L NaCl mixed solution as a test solution, the solubility of the title compound of Example 3 having a pH of 9-13 at room temperature was analyzed by liquid chromatography (HPLC) (n=3). […] From the foregoing, the solubility of the title compound of Example 3 was concluded to be about 7 mg/mL.

[3] = Measurement of hygroscopicity (moisture adsorption measurement); settings: 25° C., reduced pressure type moisture adsorption measurement apparatus
Description: The hygroscopicity of the title compound of Example 3 was measured under the following conditions using a moisture adsorption measurement apparatus. • apparatus: MB-300G manufactured by VTI • measurement temperature: 25° C. • measurement range: 0-95% RH
The title compound of Example 3 was subjected to a moisture adsorption measurement using a reduced pressure type moisture adsorption measurement apparatus.

For `Br.Br.Br.Br.Br.Cc1cc(N2CCN([C@@H]3CN[C@H](C(=O)N4CCSC4)C3)CC2)n(-c2ccccc2)n1.Cc1cc(N2CCN([C@@H]3CN[C@H](C(=O)N4CCSC4)C3)CC2)n(-c2ccccc2)n1` [Example 3, 3-{(2S,4S)-4-[4-(3-methyl-1-phenyl-1H-pyrazol-5-yl)piperazin-1-yl]pyrrolidin-2-ylcarbonyl}thiazolidine 2.5 hydrobromide], the solubility in water [1] was “not less than 20 mg/mL”, the “Solubility” value ([2]; pH 8.81, 25° C.) was 8400 µg/mL and the “solubility (concluded)” value ([2]; pH 9-13, room temperature, conclusion from the measured range) was “about 7 mg/mL”. The “Solubility” value ([2]; pH 11.94, 25° C.) was 7200 µg/mL, the “Solubility” value ([2]; pH 11.98, 25° C.) was 7900 µg/mL and the “Solubility” value ([2]; pH 12.10, 25° C.) was 7200 µg/mL. For the same compound, the “Solubility” value ([2]; pH 12.26, 25° C.) was 7800 µg/mL, the “Solubility” value ([2]; pH 12.70, 25° C.) was 6400 µg/mL and the “Solubility” value ([2]; pH 12.99, 25° C.) was 6800 µg/mL. For the same compound, the “state of water content” value ([3]; 0% RH) was “almost completely dry” and the “water maintained, corresponding to hydrate” value ([3]; 50% RH) was 1.8 hydrate.
